Data: ChEMBL document CHEMBL3879915, “Methods of inhibiting PRMT5” (2014)
pEC50, pIC50: −log10 of the molar value.

Tests used:
[1] = Antiproliferative activity against human Z138 cells assessed as inhibition of cell viability after 5 days by Cell-Titer Glo assay; format: functional, cell-based; settings: Z-138, 120 h
[2] = biological target: Protein arginine N-methyltransferase 5 (Homo sapiens, UniProt O14744); test: Inhibition of PRMT5 in human Z138 cells assessed as decrease in di-methyl arginine levels after 96 hrs by Western blot method; format: cell-based
Protein arginine N-methyltransferase 5, sequence (O14744 whole entry, the tested form may be a part): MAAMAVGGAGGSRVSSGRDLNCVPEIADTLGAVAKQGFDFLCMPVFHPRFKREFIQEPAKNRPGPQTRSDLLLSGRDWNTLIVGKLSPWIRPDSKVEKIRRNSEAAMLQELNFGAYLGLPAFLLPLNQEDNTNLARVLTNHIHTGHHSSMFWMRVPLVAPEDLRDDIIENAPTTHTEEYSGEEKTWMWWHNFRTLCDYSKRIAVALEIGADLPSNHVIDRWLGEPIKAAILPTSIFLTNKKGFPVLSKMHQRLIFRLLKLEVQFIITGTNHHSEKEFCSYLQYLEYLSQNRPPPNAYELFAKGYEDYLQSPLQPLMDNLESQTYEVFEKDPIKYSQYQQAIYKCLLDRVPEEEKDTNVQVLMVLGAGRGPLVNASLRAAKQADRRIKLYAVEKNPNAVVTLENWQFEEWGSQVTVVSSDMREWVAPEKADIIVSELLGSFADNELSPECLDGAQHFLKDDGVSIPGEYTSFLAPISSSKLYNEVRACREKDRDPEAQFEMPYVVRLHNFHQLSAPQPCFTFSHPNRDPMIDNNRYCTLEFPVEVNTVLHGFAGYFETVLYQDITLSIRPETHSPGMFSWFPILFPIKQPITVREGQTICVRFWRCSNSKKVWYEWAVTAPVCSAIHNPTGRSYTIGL

PRMT5/MEP50 complex = PRMT5/MEP50 complex (Homo sapiens, UniProt O14744); test: Inhibition of recombinant human fetal brain FLAG-tagged PRMT5/full length human testis 6His-tagged MEP50 expressed in baculovirus infected insect Sf9 cells using human histone H4 (1 to 15 residues) as substrate preincubated for 30 mins followed by [3H]-SAM addition
PRMT5/MEP50 complex, sequence (O14744 whole entry, the tested form may be a part): as above
PRMT5/MEP50 complex, sequence (Q9BQA1 whole entry, further chain, the tested form may be a part): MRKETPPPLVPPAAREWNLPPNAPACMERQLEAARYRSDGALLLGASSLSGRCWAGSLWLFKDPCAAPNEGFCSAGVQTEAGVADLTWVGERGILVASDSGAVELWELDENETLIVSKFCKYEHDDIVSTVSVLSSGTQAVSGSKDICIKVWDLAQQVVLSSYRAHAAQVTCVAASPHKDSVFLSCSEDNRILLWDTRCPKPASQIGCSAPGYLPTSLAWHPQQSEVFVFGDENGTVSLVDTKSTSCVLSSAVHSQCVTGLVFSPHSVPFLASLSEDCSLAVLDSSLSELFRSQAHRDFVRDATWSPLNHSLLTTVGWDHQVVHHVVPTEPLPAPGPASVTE

| pEC50 [2] | pIC50 (PRMT5/MEP50 complex) | Compound | pEC50 [1] |
| --- | --- | --- | --- |
| 5.00 to 6.00 | 6.00 to 7.00 | O[C@H](COc1cccc(-c2cccc3cccnc23)c1)CN1CCc2ccccc2C1 | < 4.70 |
| > 7.00 | > 7.00 | O=C(COc1ccccc1S(=O)(=O)N1CCCC1)NCC(O)CN1CCc2ccccc2C1 (stereo not drawn) | 6.00 to 7.00 |
| > 7.00 | > 7.00 | O=C(COc1ccccc1-c1cc[nH]n1)NCC(O)CN1CCc2ccccc2C1 (stereo not drawn) | 5.00 to 6.00 |
| < 4.30 |  | O=c1cc(-c2ccccc2)ccn1C[C@H](O)CN1CCc2ccccc2C1 |  |
| 6.00 to 7.00 | > 7.00 | Cn1ccc2cnc(-c3cccc(OCC(O)CN4CCc5ccccc5C4)c3)nc21 (stereo not drawn) | < 4.70 |
| 5.00 to 6.00 | 6.00 to 7.00 | OC(COc1cccc(-c2ccccc2F)c1)CN1CCc2ccccc2C1 (stereo not drawn) |  |
| 6.00 to 7.00 | > 7.00 | CC(=O)N1CCN(c2ccccc2OCC(=O)NCC(O)CN2CCc3ccccc3C2)CC1 (stereo not drawn) | 4.30 to 5.00 |
| 5.00 to 6.00 | > 7.00 | Cn1ncc2cc(-c3cccc(OCC(O)CN4CCc5ccccc5C4)c3)ccc21 (stereo not drawn) | 4.40 to 5.00 |
| 4.40 to 5.00 | 6.00 to 7.00 | OC(COc1cccc(-c2ccc(C(F)(F)F)cc2Cl)c1)CN1CCc2ccccc2C1 (stereo not drawn) | < 4.70 |
| < 4.70 | 5.00 to 6.00 | COC(COc1cccc(CNC2CCCC2)c1)CN1CCc2ccccc2C1 (stereo not drawn) | < 4.40 |
| 4.40 to 5.00 | 6.00 to 7.00 | OC(COc1cccc(-c2ccc(C(F)(F)F)cc2C(F)(F)F)c1)CN1CCc2ccccc2C1 (stereo not drawn) | < 4.70 |
| 5.00 to 6.00 | 6.00 to 7.00 | Cn1cnc2ccc(-c3cccc(OC[C@@H](O)CN4CCc5ccccc5C4)c3)cc21 | 5.00 to 6.00 |
| < 4.70 | 6.00 to 7.00 | COC(=O)c1cccc(-c2cccc(OCC(O)CN3CCc4ccccc4C3)c2)c1 (stereo not drawn) | < 4.70 |
| 6.00 to 7.00 | > 7.00 | COc1cccc(OCC(=O)NCC(O)CN2CCc3ccccc3C2)c1 (stereo not drawn) | 5.00 to 6.00 |
| 5.00 to 6.00 | 6.00 to 7.00 | Cc1cn(C)c2cc(-c3cccc(OCC(O)CN4CCc5ccccc5C4)c3)ccc12 (stereo not drawn) | < 4.70 |
| 5.00 to 6.00 | 6.00 to 7.00 | O=C(Cc1cccc2cccnc12)NCC(O)CN1CCc2ccccc2C1 (stereo not drawn) |  |
| 6.00 to 7.00 | > 7.00 | CN1CCC(n2cnc3ccc(-c4cccc(OCC(O)CN5CCc6ccccc6C5)c4)cc32)C1 (stereo not drawn) | 5.00 to 6.00 |
| 6.00 to 7.00 | 6.00 to 7.00 | NC(=O)c1ccc(C(=O)NCC(O)CN2CCc3ccccc3C2)cc1 (stereo not drawn) | < 4.70 |
| 5.00 to 6.00 | 6.00 to 7.00 | OC(COc1cccc(-c2ccc3ncn(-c4ccccc4)c3c2)c1)CN1CCc2ccccc2C1 (stereo not drawn) | < 4.70 |
| 5.00 to 6.00 | 6.00 to 7.00 | CN(C)c1ncc(-c2cccc(OCC(O)CN3CCc4ccccc4C3)c2)cn1 (stereo not drawn) | 4.40 to 5.00 |
| 6.00 to 7.00 | > 7.00 | O=C(COc1cccc2c1CNCC2)NCC(O)CN1CCc2ccccc2C1 (stereo not drawn) | 4.30 to 5.00 |
| 5.00 to 6.00 | 6.00 to 7.00 | Cn1ncc2ccc(-c3cc(COCC(O)CN4CCc5ccccc5C4)on3)cc21 (stereo not drawn) | < 4.70 |
| > 7.00 | > 7.00 | O=C(Cn1ccc2cnc(-c3ccnc(NCC(O)CN4CCc5ccccc5C4)c3)nc21)N1CCCC1 (stereo not drawn) | 5.00 to 6.00 |
| 6.00 to 7.00 | 6.00 to 7.00 | O=C1COc2ccccc2N1CC(O)CN1CCc2ccccc2C1 (stereo not drawn) | < 4.70 |
| 6.00 to 7.00 | > 7.00 | CN1CCCC1c1cccc(C(=O)NCC(O)CN2CCc3ccccc3C2)c1 (stereo not drawn) | 4.30 to 5.00 |
| 5.00 to 6.00 | 6.00 to 7.00 | OC(COc1cccc(-c2ccccc2Oc2ccccc2)c1)CN1CCc2ccccc2C1 (stereo not drawn) | < 4.70 |

| pEC50 [2] | pIC50 (PRMT5/MEP50 complex) | Compound | pEC50 [1] |
| --- | --- | --- | --- |
| 6.00 to 7.00 | 6.00 to 7.00 | Cn1cnc2ccc(-c3ccnc(NCC(O)CN4CCc5ccccc5C4)n3)cc21 (stereo not drawn) | 5.00 to 6.00 |
| 6.00 to 7.00 | > 7.00 | CN1CCCC(c2ccccc2OCC(=O)NCC(O)CN2CCc3ccccc3C2)C1 (stereo not drawn) | 5.00 to 6.00 |
| 6.00 to 7.00 | > 7.00 | Cc1cn(C)c2cccc(OCC(=O)NCC(O)CN3CCc4ccccc4C3)c12 (stereo not drawn) |  |
| 5.00 to 6.00 | 5.00 to 6.00 | CNC(=O)c1cncc(-c2cccc(OCC(O)CN3CCc4ccccc4C3)c2)c1 (stereo not drawn) | < 4.70 |
| 6.00 to 7.00 | > 7.00 | O=C(NC[C@@H](O)CN1CCc2ccccc2C1)c1cccc(-c2ccccn2)c1 | 4.30 to 5.00 |
| 6.00 to 7.00 | > 7.00 | O=C1CN(c2cncc(N3CCOCC3)c2)CCN1CC(O)CN1CCc2ccccc2C1 (stereo not drawn) | 5.00 to 6.00 |
| 5.00 to 6.00 | 6.00 to 7.00 | COc1ccc(Cl)cc1-c1cccc(OCC(O)CN2CCc3ccccc3C2)c1 (stereo not drawn) | < 4.70 |
| 6.00 to 7.00 | 6.00 to 7.00 | O=C(NC[C@@H](O)CN1CCc2ccccc2C1)c1cccc(NC2CCOCC2)c1 | 5.00 to 6.00 |
| 5.00 to 6.00 | 6.00 to 7.00 | O=C(c1cccc(-c2cccc(OCC(O)CN3CCc4ccccc4C3)c2)c1)N1CCCC1 (stereo not drawn) | 4.40 to 5.00 |
| 6.00 to 7.00 | 6.00 to 7.00 | O=C(COc1ccccc1)NCC(O)CN1CCc2ccccc2C1 (stereo not drawn) |  |
| 5.00 to 6.00 | 6.00 to 7.00 | CN(C)CCOc1ccccc1OCC(=O)NC[C@@H](O)CN1CCc2ccccc2C1 |  |
| 5.00 to 6.00 | 6.00 to 7.00 | Cn1cnc2ccc(NCC(=O)NCC(O)CN3CCc4ccccc4C3)cc21 (stereo not drawn) |  |
| < 4.30 |  | O=C1CN(c2ccccc2F)CCN1CC(O)CN1CCc2ccccc2C1 (stereo not drawn) |  |
| 5.00 to 6.00 | 6.00 to 7.00 | O=C1CN(c2ccc(CO)cc2)CCN1CC(O)CN1CCc2ccccc2C1 (stereo not drawn) |  |
| 5.00 to 6.00 | 5.00 to 6.00 | O=C(Nc1cccc(OCC(O)CN2CCc3ccccc3C2)c1)c1cccnn1 (stereo not drawn) |  |
| 6.00 to 7.00 | 6.00 to 7.00 | O=C(NCC(O)CN1CCc2ccccc2C1)c1cccc(OC2CCOCC2)c1 (stereo not drawn) |  |
| 5.00 to 6.00 | 6.00 to 7.00 | CC(C)(C)OC(=O)Nc1cccc(C(=O)NCC(O)CN2Cc3ccccc3C2)c1 (stereo not drawn) |  |
| 6.00 to 7.00 | 6.00 to 7.00 | CS(=O)(=O)c1ccccc1OCC(=O)NCC(O)CN1Cc2ccccc2C1 (stereo not drawn) |  |
| < 4.30 |  | Cc1ccccc1N1CCN(CC(O)CN2CCc3ccccc3C2)C(=O)C1 (stereo not drawn) |  |
| < 4.30 |  | O=c1cc(-c2ccccc2)ccn1C[C@@H](O)CN1CCc2ccccc2C1 |  |
| 6.00 to 7.00 | > 7.00 | O=C(COc1ccccc1S(=O)(=O)N1CCOCC1)NCC(O)CN1CCc2ccccc2C1 (stereo not drawn) |  |
| 6.00 to 7.00 | 6.00 to 7.00 | CCN(c1cccc(C(=O)NCC(O)CN2CCc3ccccc3C2)c1)C1CCOCC1 (stereo not drawn) |  |
| 6.00 to 7.00 | 6.00 to 7.00 | Cn1nccc1-c1cccc(CC(=O)NCC(O)CN2CCc3ccccc3C2)c1 (stereo not drawn) |  |
| 6.00 to 7.00 | 6.00 to 7.00 | O=C(COc1ccccc1N1CCOCC1)NC[C@@H](O)CN1CCc2ccccc2C1 |  |
| < 4.70 | 6.00 to 7.00 | COc1cc(Cl)cc(-c2cccc(OCC(O)CN3CCc4ccccc4C3)c2)c1 (stereo not drawn) |  |
| 5.00 to 6.00 | 5.00 to 6.00 | CN1CCN(c2ccccc2OCC(=O)NC[C@@H](O)CN2CCc3ccccc3C2)CC1 |  |

| pEC50 [2] | pIC50 (PRMT5/MEP50 complex) | Compound | pEC50 [1] |
| --- | --- | --- | --- |
|  | < 4.40 | OC(COC1CCNCC1)CN1CCc2ccccc2C1 (stereo not drawn) | < 4.40 |
|  | 5.00 to 6.00 | OC(COCC1CCCCC1)CN1CCc2ccccc2C1 (stereo not drawn) | < 4.40 |
|  | 5.00 to 6.00 | OC(COCc1ccc(OCc2ccccc2)cc1)CN1CCc2ccccc2C1 (stereo not drawn) | < 4.70 |
|  | 5.00 to 6.00 | OC(COC1CCN(Cc2ccccc2)CC1)CN1CCc2ccccc2C1 (stereo not drawn) | < 4.40 |
|  | 5.00 to 6.00 | OC(COCc1c(Cl)cccc1Cl)CN1CCc2ccccc2C1 (stereo not drawn) | 4.40 to 5.00 |
|  | 5.00 to 6.00 | CC(C)(C)OC(=O)N1CC(OCC(O)CN2CCc3ccccc3C2)C1 (stereo not drawn) | < 4.40 |
|  | 5.00 to 6.00 | OC(COCC1CC1)CN1CCc2ccccc2C1 (stereo not drawn) | < 4.40 |
|  | 5.00 to 6.00 | O=S1(=O)CCN(c2ccc(OCC(O)CN3CCc4ccccc4C3)cc2)CC1 (stereo not drawn) | < 4.70 |
| 5.00 to 6.00 | 6.00 to 7.00 | N#CCc1cccc(-c2cccc(OCC(O)CN3CCc4ccccc4C3)c2)c1 (stereo not drawn) |  |
|  | 5.00 to 6.00 | CN(Cc1ccc(OCC(O)CN2CCc3ccccc3C2)cc1)C1CCCC1 (stereo not drawn) | < 4.40 |
| 5.00 to 6.00 | 6.00 to 7.00 | Cn1ccnc1-c1ccccc1OCC(=O)NCC(O)CN1CCc2ccccc2C1 (stereo not drawn) |  |
|  | < 4.40 | OC(COCC1CCCCO1)CN1CCc2ccccc2C1 (stereo not drawn) | < 4.40 |
|  | 5.00 to 6.00 | CC(C(O)COc1cccc(CNC2CCCC2)c1)N1CCc2ccccc2C1 (stereo not drawn) | < 4.40 |
| < 4.70 | 6.00 to 7.00 | Cn1cc2ccc(-c3cccc(OCC(O)CN4CCc5ccccc5C4)c3)cc2n1 (stereo not drawn) |  |
| 5.00 to 6.00 | > 7.00 | O=C1CN(c2cccc(Cl)c2)CCN1CC(O)CN1CCc2ccccc2C1 (stereo not drawn) |  |
| 6.00 to 7.00 | 6.00 to 7.00 | O=C(NCC(O)CN1Cc2ccccc2C1)c1cccc(NC2CCOCC2)c1 (stereo not drawn) |  |
| 6.00 to 7.00 | > 7.00 | O=C(NCC(O)CN1CCc2ccccc2C1)c1cccc(NC2CCOC2)c1 (stereo not drawn) |  |
|  | 5.00 to 6.00 | OC(COc1ccc2c(c1)OCO2)CN1CCc2ccccc2C1 (stereo not drawn) | < 4.70 |
|  | 5.00 to 6.00 | O[C@@H](COc1cccc(CNC2CCCC2)c1)CN1CCc2ccccc2C1 | 4.40 to 5.00 |
| 5.00 to 6.00 | 5.00 to 6.00 | O=C(Nc1cccc(OCC(O)CN2CCc3ccccc3C2)c1)c1cccnc1 (stereo not drawn) |  |
| 6.00 to 7.00 |  | Cn1cnc2ccc(OCC(=O)NCC(O)CN3CCc4ccccc4C3)cc21 (stereo not drawn) | 4.30 to 5.00 |
|  | > 7.00 | O=C(NC[C@H](O)CN1CCc2ccccc2C1)c1cccc(NC2CCOCC2)c1 | 6.00 to 7.00 |
|  | 6.00 to 7.00 | O[C@H](COc1cccc(CNC2CCCC2)c1)CN1CCc2ccccc2C1 | 4.40 to 5.00 |
|  | 5.00 to 6.00 | CC(C)n1ccc(-c2ccc(OCC(O)CN3CCc4ccccc4C3)cc2)n1 (stereo not drawn) | < 4.40 |
|  | 4.40 to 5.00 | OC(COCc1ccccc1)CN1CCc2ccccc2C1 (stereo not drawn) | < 4.40 |

| Compound | pEC50 [2] | pIC50 (PRMT5/MEP50 complex) | pEC50 [1] |
| --- | --- | --- | --- |
| O=C(NC[C@@H](O)CN1CCc2ccccc2C1)Oc1ccccc1 | 5.00 to 6.00 | > 7.00 |  |
